Here are results for eleven molecules from patent US12459922B2 (Gilead Sciences, Inc., priority 2022, dated 2025).

The structures appear in SMILES notation.

This test deals with endogenous cellular STAT1 (phosphorylated at Tyr701) in NCI-H1373 cells. Kind of test: Phospho-STAT1 (Tyr701) LANCE Ultra TR-FRET Detection Assay. Type of test: cell-based. To be noted: Homo sapiens, NCI-H1373, 48 h, phospho-STAT1 (Tyr701) induction, read-out: NH1373 pSTAT1 EC50.

Turning to `O=c1[nH]ncc(N[C@H]2CCC[C@@H](Cn3ccc4cc(-c5ncc(C6CC6)cn5)c(F)cc4c3=O)C2)c1C(F)(F)F` [Example 241], the EC50 was found to be 6.38 nM.

For the molecule `COc1cnc(-c2cc3ccn(CCC[C@H](C)Nc4cn[nH]c(=O)c4C(F)(F)F)c(=O)c3cc2F)nc1NC1(C(F)F)CC1` [Example 219, (S)-6-(4-((1-(difluoromethyl)cyclopropyl)amino)-5-methoxypyrimidin-2-yl)-7-fluoro-2-(4-((6-oxo-5-(trifluoromethyl)-1,6-dihydropyridazin-4-yl)amino)pentyl)isoquinolin-1(2H)-one], the EC50 worked out at 430 nM.

With `C[C@@H](CCCn1ccc2cc(-c3ccc(C(F)(F)CO)cn3)c(F)cc2c1=O)Nc1cn[nH]c(=O)c1C(F)(F)F` [Example 75, 6-[5-(1,1-difluoro-2-hydroxy-ethyl)-2-pyridyl]-7-fluoro-2-[(4S)-4-[[6-oxo-5-(trifluoromethyl)-1H-pyridazin-4-yl]amino]pentyl]isoquinolin-1-one], the EC50 stood at 54.2 nM.

Consider `COc1cnc(-c2cc3ccn(CCC[C@H](C)Nc4cn[nH]c(=O)c4C(F)(F)F)c(=O)c3cc2F)nc1N1CC(F)(F)C1` [Example 210], for which the EC50 was 132 nM.

Regarding `COc1cnc(-c2cc3ccn(CCC[C@H](C)Nc4cn[nH]c(=O)c4C(F)(F)F)c(=O)c3c(F)c2F)nc1N` [Example 109, 6-(4-amino-5-methoxy-pyrimidin-2-yl)-7,8-difluoro-2-[(4S)-4-[[6-oxo-5-(trifluoromethyl)-1H-pyridazin-4-yl]amino]pentyl]isoquinolin-1-one], the EC50 came out at 8.59 nM.

`C[C@@H](CCCn1cnc2cc(-c3ncc(C(F)(F)F)c(N4CCOCC4)n3)c(F)cc2c1=O)Nc1cn[nH]c(=O)c1C(F)(F)F` [Example 201, (S)-6-fluoro-7-(4-morpholino-5-(trifluoromethyl)pyrimidin-2-yl)-3-(4-((6-oxo-5-(trifluoromethyl)-1,6-dihydropyridazin-4-yl)amino)pentyl)quinazolin-4(3H)-one]: the EC50 stood at 4.03 nM.

Take `O=c1[nH]ncc(N[C@H]2CCC[C@@H](Cn3ccc4cc(-c5ccc(C(F)(F)CO)cn5)c(F)cc4c3=O)C2)c1C(F)(F)F` [Example 279, 6-(5-(1,1-difluoro-2-hydroxyethyl)pyridin-2-yl)-7-fluoro-2-(((1R,3S)-3-((6-oxo-5-(trifluoromethyl)-1,6-dihydropyridazin-4-yl)amino)cyclohexyl)methyl)isoquinolin-1(2H)-one]: the EC50 was determined as 15.5 nM.

In the case of `CC(C)c1cnc(-c2cc3ccn(CCC[C@H](C)Nc4cn[nH]c(=O)c4C(F)(F)F)c(=O)c3cc2F)nc1N` [Example 325, (S)-6-(4-amino-5-isopropylpyrimidin-2-yl)-7-fluoro-2-(4-((6-oxo-5-(trifluoromethyl)-1,6-dihydropyridazin-4-yl)amino)pentyl)isoquinolin-1(2H)-one], the EC50 is 10.6 nM.

With `C[C@@H](CCCn1ccc2cc(-c3ncc(C#N)c(N)n3)c(F)c(F)c2c1=O)Nc1cn[nH]c(=O)c1C(F)(F)F` [Example 110, 4-amino-2-[7,8-difluoro-1-oxo-2-[(4S)-4-[[6-oxo-5-(trifluoromethyl)-1H-pyridazin-4-yl]amino]pentyl]-6-isoquinolyl]pyrimidine-5-carbonitrile], the EC50 was determined as 13.4 nM.

For `Cc1ncc(-c2cc3ccn(C[C@@H]4CCC[C@H](Nc5cn[nH]c(=O)c5C(F)(F)F)C4)c(=O)c3cc2F)nc1N` [Example 262, 6-(6-amino-5-methylpyrazin-2-yl)-7-fluoro-2-(((1R,3S)-3-((6-oxo-5-(trifluoromethyl)-1,6-dihydropyridazin-4-yl)amino)cyclohexyl)methyl)isoquinolin-1(2H)-one], the EC50 is 193 nM.

`Nc1nc(-c2cc3ncn(CCC[C@@H](Nc4cn[nH]c(=O)c4C(F)(F)F)C4CC4)c(=O)c3cc2F)cnc1C(F)(F)F` [Example 460, (R)-7-(6-amino-5-(trifluoromethyl)pyrazin-2-yl)-3-(4-cyclopropyl-4-((6-oxo-5-(trifluoromethyl)-1,6-dihydropyridazin-4-yl)amino)butyl)-6-fluoroquinazolin-4(3H)-one]: the EC50 is 69.9 nM.
